Molecules are shown by their SMILES.

What is called viability is a read-out of living cells in per cent, often relative to untreated cells.

The first data set is described as follows: in vitro. The note with it: human, hela cells.
Take `O=C(NCCc1ccccc1)c1ccc(N2CCN(C(=O)c3ccccc3C(F)(F)F)CC2)nn1` [CBK153212]: the viability at 28.5 h, 10 µM came to 83.2%.

The data set is the same for the next values; noted with them: human, hela cells, % viability.
For `CS(=O)(=O)c1ccc(-c2cccc(COC3CCN(C(=O)Cc4c[nH]cn4)CC3)c2)cc1` [CBK149515], the viability at 28.5 h, 10 µM amounted to 90.9%.

As to `CN1CCN(CCCNC(=O)C2(c3ccccc3)CCCC2)CC1` [CBK149521], the viability at 28.5 h, 10 µM is 106%.

As for `O=C(NCC1COc2ccccc2O1)C1(c2ccccc2)CCCC1` (centres unmarked) [CBK149524], the viability at 28.5 h, 10 µM was 93.8%.

Consider `CSCCCNC(=O)C1(c2ccccc2)CCCC1` [CBK149526], for which the viability at 28.5 h, 10 µM was 109%.

Take `O=C(NCc1ccc(Cl)c(Cl)c1)C1(c2ccccc2)CCCC1` [CBK149528]: the viability at 28.5 h, 10 µM was determined as 92.8%.

With `O=C(NCc1ccc2c(c1)OCO2)C1(c2ccccc2)CCCC1` [CBK149530], the viability at 28.5 h, 10 µM is 89.8%.

Take `Cc1cnc(CNC(=O)C2(c3ccccc3)CCCC2)cn1` [CBK149531]: the viability at 28.5 h, 10 µM was found to be 101%.

In the case of `O=C(NCc1cccc2ccccc12)C1(c2ccccc2)CCCC1` [CBK149534], the viability at 28.5 h, 10 µM was 96.6%.

On to `O=C(NCCc1ccc(O)cc1)C1(c2ccccc2)CCCC1` [CBK149535], for which the viability at 28.5 h, 10 µM amounted to 84.9%.

For the compound `O=C(NCCN1CCOCC1)C1(c2ccccc2)CCCC1` [CBK149538], the viability at 28.5 h, 10 µM was 95.2%.

Take `O=C(NCc1ccccc1)C1(c2ccccc2)CCCC1` [CBK149540]: the viability at 28.5 h, 10 µM turned out to be 111%.

Regarding `CC(O)CNC(=O)C1(c2ccccc2)CCCC1` (centres unmarked) [CBK149542], the viability at 28.5 h, 10 µM worked out at 96%.

As for `CCOC(=O)CCNC(=O)C1(c2ccccc2)CCCC1` [CBK149543], the viability at 28.5 h, 10 µM is 88.2%.

Turning to `Cc1cc(Cl)ccc1CNC(=O)c1ccccc1Nc1cccc(C(F)(F)F)c1` [CBK149544], the viability at 28.5 h, 10 µM is 97.3%.

Turning to `CSCCCNC(=O)c1ccccc1Nc1cccc(C(F)(F)F)c1` [CBK149551], the viability at 28.5 h, 10 µM is 71.3%.

Regarding `NS(=O)(=O)c1ccc(CNC(=O)c2ccccc2Nc2cccc(C(F)(F)F)c2)cc1` [CBK149579], the viability at 28.5 h, 10 µM stood at 94.4%.

For `O=C(Nc1ccc2[nH]ccc2c1)c1ccccc1Nc1cccc(C(F)(F)F)c1` [CBK149583], the viability at 28.5 h, 10 µM is 105%.

With `O=C(NCc1cccs1)c1ccccc1-n1cccc1` [CBK149584], the viability at 28.5 h, 10 µM is 92%.

As for `O=C(NCc1cccc2ccccc12)c1ccccc1-n1cccc1` [CBK149585], the viability at 28.5 h, 10 µM is 99.8%.

Consider `O=C(NCc1cccc(C(F)(F)F)c1)c1ccccc1-n1cccc1` [CBK149598], for which the viability at 28.5 h, 10 µM amounted to 100%.

Take `CS(=O)(=O)c1ccc(CNC(=O)c2ccccc2-n2cccc2)cc1` [CBK149612]: the viability at 28.5 h, 10 µM is 94.2%.

With `Cc1cc(Cl)ccc1CNC(=O)/C=C/c1ccc(C(C)C)cc1` [CBK149615], the viability at 28.5 h, 10 µM is 85.2%.

For the compound `CC(C)c1ccc(/C=C/C(=O)NCC2COc3ccccc3O2)cc1` (centres unmarked) [CBK149619], the viability at 28.5 h, 10 µM amounted to 120%.

Regarding `CC(C)c1ccc(/C=C/C(=O)NCCN2CCOCC2)cc1` [CBK149631], the viability at 28.5 h, 10 µM came to 92.6%.

`CC(C)c1ccc(/C=C/C(=O)NCc2ccc(C#N)cc2)cc1` [CBK149642]: the viability at 28.5 h, 10 µM turned out to be 91%.

Turning to `CC(C)c1ccc(/C=C/C(=O)N[C@H]2CC[C@H](O)CC2)cc1` [CBK149644], the viability at 28.5 h, 10 µM was determined as 106%.

Regarding `CC(C)c1ccc(/C=C/C(=O)NCCC(N)=O)cc1` [CBK149646], the viability at 28.5 h, 10 µM worked out at 81.9%.

For the compound `CC(C)S(=O)(=O)N1CCC(n2c(=O)[nH]c3ccccc32)CC1` [CBK149693], the viability at 28.5 h, 10 µM was determined as 101%.

As for `CC(=O)Nc1ccc(S(=O)(=O)N2CCC(n3c(=O)[nH]c4ccccc43)CC2)cc1` [CBK149696], the viability at 28.5 h, 10 µM came to 92.3%.

Turning to `Cc1cc(C(=O)N2CCC(n3c(=O)[nH]c4ccccc43)CC2)no1` [CBK149714], the viability at 28.5 h, 10 µM amounted to 103%.

Regarding `CCc1c(C)nc2ccccc2c1SCCC(=O)N(C)C` [CBK149718T], the viability at 28.5 h, 10 µM stood at 99.9%.

As to `CC1CCN(Cc2ccc(-c3nnn(CC(=O)NCc4ccc(C(F)(F)F)nc4)n3)cc2)CC1` [CBK149721T], the viability at 28.5 h, 10 µM amounted to 112%.

For `CC1CCN(Cc2ccc(-c3nnn(CC(=O)NCc4ccc(C(F)(F)F)cn4)n3)cc2)CC1` [CBK149722T], the viability at 28.5 h, 10 µM stood at 104%.

Consider `CNc1ccc2cccc(OCCO)c2n1` [CBK149727], for which the viability at 28.5 h, 10 µM is 95.6%.

Turning to `O=c1ccc2cccc(OCCO)c2o1` [CBK149730], the viability at 28.5 h, 10 µM came out at 105%.

As to `CN(C)C(=O)c1ccc(-c2ccc3c(c2)COC(C2CCN(C(=O)Cc4ccc(C#N)cc4)CC2)O3)cc1` (centres unmarked) [CBK149760], the viability at 28.5 h, 10 µM worked out at 107%.

With `CN(C)C(=O)c1ccc(-c2ccc3c(c2)COC(C2CCN(C(=O)CC(C)(C)c4ccccc4)CC2)O3)cc1` (centres unmarked) [CBK149765], the viability at 28.5 h, 10 µM came to 107%.

Take `COc1cccc2cc(C(=O)NCC3COc4ccccc4O3)oc12` (centres unmarked) [CBK149791]: the viability at 28.5 h, 10 µM turned out to be 109%.

On to `COc1cccc2cc(C(=O)NCCCSC)oc12` [CBK149793], for which the viability at 28.5 h, 10 µM worked out at 99.6%.

As to `COc1cccc2cc(C(=O)NCc3cccs3)oc12` [CBK149799], the viability at 28.5 h, 10 µM worked out at 67.9%.

Turning to `COc1cccc2cc(C(=O)NCc3cccc4ccccc34)oc12` [CBK149800], the viability at 28.5 h, 10 µM stood at 78.6%.

`COc1cccc2cc(C(=O)NC3CC3)oc12` [CBK149813]: the viability at 28.5 h, 10 µM was 97.8%.

For `CCOC(=O)CCNC(=O)c1cc2cccc(OC)c2o1` [CBK149816], the viability at 28.5 h, 10 µM stood at 88.1%.

Turning to `COc1cccc2cc(C(=O)Nc3ccc4[nH]ccc4c3)oc12` [CBK149819], the viability at 28.5 h, 10 µM turned out to be 91.5%.

With `COc1ccc(OCCNC(=O)C2(c3ccc(OC)cc3)CC2)cc1` [CBK149821], the viability at 28.5 h, 10 µM was 91.8%.

As for `COc1ccc(C2(C(=O)NCCCN3CCN(C)CC3)CC2)cc1` [CBK149822], the viability at 28.5 h, 10 µM was determined as 101%.

As to `COc1ccc(C2(C(=O)NCc3ccc(OC(F)(F)F)cc3)CC2)cc1` [CBK149823], the viability at 28.5 h, 10 µM is 117%.

For the compound `COc1ccc(C2(C(=O)NCc3ccc(Cl)c(Cl)c3)CC2)cc1` [CBK149827], the viability at 28.5 h, 10 µM was 98.7%.

With `COc1ccc(C2(C(=O)NCc3cccs3)CC2)cc1` [CBK149831], the viability at 28.5 h, 10 µM was 106%.

In the case of `COc1ccc(C2(C(=O)NCCc3ccc(O)cc3)CC2)cc1` [CBK149833], the viability at 28.5 h, 10 µM came out at 101%.

As to `O=C(Nc1ccc(C(F)(F)F)cc1)N1CCC(n2c(=O)[nH]c3ccccc32)CC1` [CBK149847], the viability at 28.5 h, 10 µM was determined as 83.1%.

Consider `O=C(Nc1ccc(Cl)cc1)N1CCC(n2c(=O)[nH]c3ccccc32)CC1` [CBK149850], for which the viability at 28.5 h, 10 µM stood at 98.5%.

As to `COc1cc(OC)c(NC(=O)N2CCC(n3c(=O)[nH]c4ccccc43)CC2)cc1Cl` [CBK149851], the viability at 28.5 h, 10 µM was 91.4%.

Take `O=C(Nc1cccc(Cl)c1Cl)N1CCC(n2c(=O)[nH]c3ccccc32)CC1` [CBK149856]: the viability at 28.5 h, 10 µM is 94.6%.

In the case of `CCOC(=O)N1CCC(n2c(=O)[nH]c3ccccc32)CC1` [CBK149867], the viability at 28.5 h, 10 µM was 79.6%.

Consider `COc1ccc(OC(=O)N2CCC(n3c(=O)[nH]c4ccccc43)CC2)cc1` [CBK149868], for which the viability at 28.5 h, 10 µM came to 102%.

On to `CC(=O)NCc1cccc(-c2cc(C(=O)Nc3ccc4c(c3)OCCO4)cnc2O)c1` [CBK149871T], for which the viability at 28.5 h, 10 µM was found to be 91.6%.

For `c1ccc(CC(Cc2nc3ccccc3[nH]2)c2nc3ccccc3[nH]2)cc1` (centres unmarked) [CBK150452], the viability at 28.5 h, 10 µM was 107%.

With `O=c1nc(-c2ccccc2Cl)oc2ccccc12` [CBK152263], the viability at 28.5 h, 10 µM worked out at 89.9%.

Take `O=c1nc(-c2ccco2)oc2ccccc12` [CBK152421]: the viability at 28.5 h, 10 µM was determined as 112%.

As to `Cc1cccc2c(=O)nc(-c3ccccc3Cl)oc12` [CBK152422], the viability at 28.5 h, 10 µM was 106%.

For the compound `O=C(Nc1sc2c(c1C(=O)O)CCC2)c1cccs1` [CBK152437], the viability at 28.5 h, 10 µM worked out at 95.2%.

As to `COc1cccc(-c2ccc3c(c2)[nH]c(=O)n3C2CCN(C(=O)c3ccc(C)c(OC)c3)CC2)c1` [CBK153141], the viability at 28.5 h, 10 µM stood at 102%.

On to `Cc1ccc(CNC(=O)Cn2nnc(-c3ccc(CNCC(F)(F)F)cc3)n2)cc1` [CBK153204T], for which the viability at 28.5 h, 10 µM was determined as 116%.

For `O=C(NCC1CC1)c1ccc(N2CCN(C(=O)c3ccccc3C(F)(F)F)CC2)nn1` [CBK153220], the viability at 28.5 h, 10 µM was determined as 111%.

On to `O=C1NC(=O)C(CC(=O)N2CCC3(CCCNC3)C2)N1` (centres unmarked) [CBK153232C], for which the viability at 28.5 h, 10 µM stood at 79.2%.

Regarding `O=C(c1cncnc1)N1CCC2(CCCNC2)C1` (centres unmarked) [CBK153237C], the viability at 28.5 h, 10 µM stood at 89.7%.

Consider `COC(=O)CCC(=O)Nc1snnc1-c1ccc(Cl)cc1` [CBK153241], for which the viability at 28.5 h, 10 µM worked out at 99.3%.

For `O=C(CC1CCCCC1)Nc1snnc1-c1ccc(Cl)cc1` [CBK153245], the viability at 28.5 h, 10 µM stood at 114%.

`O=C(Nc1snnc1-c1ccc(Cl)cc1)c1ccc(OC(F)(F)F)cc1` [CBK153247]: the viability at 28.5 h, 10 µM stood at 70.5%.

In the case of `O=C(OCc1ccccc1)N1CCC(C2OCc3cc(-c4ccc(C(=O)N5CCCC5)cc4)ccc3O2)CC1` (centres unmarked) [CBK153260], the viability at 28.5 h, 10 µM was 108%.

For `O=C(OCc1ccccc1)N1CCC(C2OCc3cc(-c4ccc(C(=O)N5CCCCC5)cc4)ccc3O2)CC1` (centres unmarked) [CBK153262], the viability at 28.5 h, 10 µM turned out to be 93.8%.

Consider `O=S(=O)(c1ccccc1)N1Cc2cccc3[nH]cc(c23)C1` [CBK153275], for which the viability at 28.5 h, 10 µM was found to be 102%.

For the compound `CC1(C)CC(=O)C=C(C(=O)NCc2c(F)cccc2F)O1` [CBK153287], the viability at 28.5 h, 10 µM was 91.2%.

Regarding `CSCCCNC(=O)c1ccc2nc[nH]c2c1` [CBK153314], the viability at 28.5 h, 10 µM amounted to 116%.

Take `O=C(NCc1c(F)cccc1F)c1ccc2nc[nH]c2c1` [CBK153315]: the viability at 28.5 h, 10 µM is 83%.

Regarding `O=C(NCc1cccs1)c1ccc2nc[nH]c2c1` [CBK153320], the viability at 28.5 h, 10 µM was determined as 92.1%.

For `Cc1csc(C(C)NC(=O)c2cccnc2NCc2ccc3c(c2)OCO3)n1` (centres unmarked) [CBK153425], the viability at 28.5 h, 10 µM was found to be 108%.

As to `O=C(NCc1ccc([N+](=O)[O-])cc1)c1cccnc1NCc1ccc2c(c1)OCO2` [CBK153436], the viability at 28.5 h, 10 µM came out at 98.6%.
